This note sets out measurements from US9616019B2, “Nanosuspension of a poorly soluble drug via microfluidization process” (Celgene Corporation, priority 2009, dated 2017).

A short description of the series: Particle size distribution by laser diffraction particle size analyzer. The series is classed as physicochemical. As to the method: The particle size distribution of the resultant suspensions can be measured using any instrumentation. An example is laser diffraction using a Cilas Particle Size Analyser 1190. The images of the particles can be taken using, for example, the microscope “Olympus”. The resolution rates can be determined, for example, by a pION μDISS Profiler.
An aqueous dispersion of cyclopropyl-N-{2-[(1S)-1-(3-ethoxy-4-methoxyphenyl)-2-(methylsulfonyl)ethyl]-3-oxoisoindoline-4-yl}carboxamide up to 200 mg/ml in 0.5% HPMC E5 were able to be processed through the Microfluidizer processor. […] By processing at 27K psi for 100 passes, the mean particle size by volume was reduced from 8.0 μm to 0.39 μm, while by processing at 15K psi, the mean size was 0.91 μm. The D90 of particle size by number was 0.09 μm.
Nanosuspensions were formed by initially stirring the micronized cyclopropyl-N-{2-[(1S)-1-(3-ethoxy-4-methoxyphenyl)-2-(methylsulfonyl)ethyl]-3-oxoisoindoline-4-yl}carboxamide in aqueous excipient solutions including PVP, CMC, HPMC, PEG, PEO, Transcutol, glycerin, and/or various surfactants for wetting and solubilization, followed by passing through a high-shear microfluidizer processor. The particle size distribution of the resultant suspensions was measured by a laser diffraction particle size analyzer. The images of the particles were taken using a microscope.
Aqueous dispersions of cyclopropyl-N-{2-[(1S)-1-(3-ethoxy-4-methoxyphenyl)-2-(methylsulfonyl)ethyl]-3-oxoisoindoline-4-yl}carboxamide up to 200 mg/ml in polymeric excipients were processed with this approach. The 200 mg/mL nanosuspension was physically stable at room temperature for 2 months, based on the images and particle size analysis. The D90 of particle size by number was 0.09 μm. […] Upon dilution from 200 mg/ml to 25 mg/ml with specific surfactants, the solubility increased 40 fold over 40 minutes.

The structures appear in SMILES notation.

With `CCOc1cc([C@@H](CS(C)(=O)=O)N2Cc3cccc(NC(=O)C4CC4)c3C2=O)ccc1OC` [cyclopropyl-N-{2-[(1S)-1-(3-ethoxy-4-methoxyphenyl)-2-(methylsulfonyl)ethyl]-3-oxoisoindoline-4-yl}carboxamide], the “D90 of particle size by number” value was 0.09 μm. Further, the “mean particle size by volume” value (before microfluidization) worked out at 8.0 μm. The compound further displayed a mean particle size (optimal process pressure and time) of 0.05 μm. For the same compound, the “mean particle size by volume” value (processing at 15K psi) was 0.91 μm. The compound also had a mean particle size (processing at 15K psi (Example 4)) of 0.08 μm. Besides, for the setting “processing at 27K psi for 100 passes, 0.5% HPMC E5”, the “mean particle size by volume” value came to 0.39 μm. The compound further came in with a mean particle size (processing at 27K psi for 130 passes) of 0.05 µm.
